Usually EC50 stands for the concentration needed to bring the measured effect to its halfway point.

This test has as its target T1, delF508-CFTR-HRP (Homo sapiens, UniProt P13569, DEL508-508).
T1 construct: expressed in transfected cells
In words: Measurement of delF508-CFTR-HRP surface expression in CFBE41o- cells (HRP luminescence).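 For DelF508-CFTR-HRP Amax %: percent efficacy relative to a reference CFTR corrector compound.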 In kind it is cell-based. The following applies: for Emax: CFBE41o-, read-out: DelF508-CFTR-HRP Amax %; for EC50: mean of at least two replicates. The method, boiled down:
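Stably transfected CFBE41o- cells carrying HRP in the fourth extracellular loop of delF508-CFTR, induced with 500 ng/mL doxycycline for 48 h, then compound-treated 24 h at 37° C (10-point, 3-fold, top 10 μM). Surface HRP detected by luminescent substrate; EC50 from logistic fit, triplicates, normalized to lowest-concentration median.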

T1 sequence (P13569 with tags, fused parts or gaps DEL508-508): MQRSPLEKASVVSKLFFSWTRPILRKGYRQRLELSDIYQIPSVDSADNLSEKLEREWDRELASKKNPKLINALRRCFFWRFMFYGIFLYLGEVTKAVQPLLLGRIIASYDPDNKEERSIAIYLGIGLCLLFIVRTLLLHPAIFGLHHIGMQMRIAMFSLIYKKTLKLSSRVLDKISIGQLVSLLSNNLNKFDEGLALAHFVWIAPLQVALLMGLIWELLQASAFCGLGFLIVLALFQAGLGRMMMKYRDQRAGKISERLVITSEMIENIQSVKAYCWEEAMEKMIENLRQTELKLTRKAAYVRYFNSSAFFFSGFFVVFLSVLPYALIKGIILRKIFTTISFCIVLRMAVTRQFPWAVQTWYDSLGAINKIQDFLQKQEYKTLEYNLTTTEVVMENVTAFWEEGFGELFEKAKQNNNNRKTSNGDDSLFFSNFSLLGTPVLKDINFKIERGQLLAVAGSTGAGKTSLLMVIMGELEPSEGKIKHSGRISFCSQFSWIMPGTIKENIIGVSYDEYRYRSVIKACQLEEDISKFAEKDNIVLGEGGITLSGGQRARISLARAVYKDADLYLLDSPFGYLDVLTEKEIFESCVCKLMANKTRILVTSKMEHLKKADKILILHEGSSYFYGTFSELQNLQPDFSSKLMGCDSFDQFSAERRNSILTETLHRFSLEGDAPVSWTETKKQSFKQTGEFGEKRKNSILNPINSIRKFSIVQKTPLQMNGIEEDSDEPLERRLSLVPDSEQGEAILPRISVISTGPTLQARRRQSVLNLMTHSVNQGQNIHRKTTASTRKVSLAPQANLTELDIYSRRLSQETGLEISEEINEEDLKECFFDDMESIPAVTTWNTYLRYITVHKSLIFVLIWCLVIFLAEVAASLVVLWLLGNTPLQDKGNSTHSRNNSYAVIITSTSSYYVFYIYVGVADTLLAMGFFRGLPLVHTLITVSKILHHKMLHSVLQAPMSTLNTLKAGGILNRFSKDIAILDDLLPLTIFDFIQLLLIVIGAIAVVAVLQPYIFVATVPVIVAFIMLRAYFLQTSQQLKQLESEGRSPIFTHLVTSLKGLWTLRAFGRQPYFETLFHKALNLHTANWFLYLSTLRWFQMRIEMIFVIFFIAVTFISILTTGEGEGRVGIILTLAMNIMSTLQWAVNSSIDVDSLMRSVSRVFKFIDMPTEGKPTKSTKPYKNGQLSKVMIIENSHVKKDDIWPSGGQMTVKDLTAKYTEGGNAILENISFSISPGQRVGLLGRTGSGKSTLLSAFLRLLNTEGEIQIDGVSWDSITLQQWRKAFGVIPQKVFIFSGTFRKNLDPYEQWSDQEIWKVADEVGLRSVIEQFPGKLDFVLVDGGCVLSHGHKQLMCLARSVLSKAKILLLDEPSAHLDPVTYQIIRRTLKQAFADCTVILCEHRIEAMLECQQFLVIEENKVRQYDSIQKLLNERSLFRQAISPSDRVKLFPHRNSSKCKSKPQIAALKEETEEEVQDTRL

For the compound `Cc1cnc(N2CCC(C)(C)CC2)c(OC2(C(=O)NS(=O)(=O)c3cccc(N4CC[C@H](O)C4)n3)CC2)c1` [Example 10-11, (S)-1-((2-(4,4-dimethylpiperidin-1-yl)-5-methylpyridin-3-yl)oxy)-N-((6-(3-hydroxypyrrolidin-1-yl)pyridin-2-yl)sulfonyl)cyclopropanecarboxamide], the Emax was 181% and a half-maximal response (EC50) required 2950 nM.

For `Cc1ccc(C)c(OC2(C(=O)NS(=O)(=O)c3cccc(NC[C@@H](C)O)n3)CCCC2)c1` [Example 4-4, (R)-1-(2,5-dimethylphenoxy)-N-((6-((2-hydroxypropyl)amino)pyridin-2-yl)sulfonyl)cyclopentane-1-carboxamide], the Emax turned out to be 84% and the EC50 was 4770 nM.

In the case of `CC1(O)CCN(c2cccc(S(=O)(=O)NC(=O)C3(Oc4cc(Cl)ccc4C4CC5(CCC5)C4)CCCC3)n2)C1` (single isomer, unassigned) [Example 7-18-1, 1-(5-Chloro-2-(spiro[3.3]heptan-2-yl)phenoxy)-N-((6-(3-hydroxy-3-methylpyrrolidin-1-yl)pyridin-2-yl)sulfonyl)cyclopentane-1-carboxamide], the “DelF508-CFTR-HRP Amax %” value is reported as 493.9% and the response was half-maximal at 900 nM (EC50).

Consider `Cc1ccc(OC2CCC(C(C)(C)C)CC2)c(OC2(C(=O)NS(=O)(=O)c3cccc(N4CCC(O)(C(F)(F)F)CC4)n3)CC2)c1` (stereo not drawn) [Example 6-8, 1-(2-((4-(tert-butyl)cyclohexyl)oxy)-5-methylphenoxy)-N-((6-(4-hydroxy-4-(trifluoromethyl)piperidin-1-yl)pyridin-2-yl)sulfonyl)cyclopropanecarboxamide], for which the Emax amounted to 428% and the EC50 came out at 210 nM.

As to `CC1(C)CN(c2ccc(Cl)cc2OC2(C(=O)NS(=O)(=O)c3cccc(N4CC[C@H](O)C4)n3)CC2)C1` [Example 9-21, (S)-1-(5-Chloro-2-(3,3-dimethylazetidin-1-yl)phenoxy)-N-((6-(3-hydroxypyrrolidin-1-yl)pyridin-2-yl)sulfonyl)cyclopropanecarboxamide], the Emax worked out at 720% and the EC50 came to 2280 nM.

In the case of `CC(C)(C)C1CCC(Nc2ccc(Cl)cc2OC2(C(=O)NS(=O)(=O)c3cccc(N4CC[C@H](O)C4)n3)CC2)CC1` (single isomer, unassigned) [Example 9-5-2], the “DelF508-CFTR-HRP Amax %” value worked out at 678.4% and the midpoint of the response, the EC50, lay at 330 nM.

Regarding `Cc1ccc(C2CC3(CCC3)C2)c(OC2(C(=O)NS(=O)(=O)c3cccc(N4CC[C@H](O)C4)n3)CC2)c1` [Example 4-19, (S)-N-((6-(3-Hydroxypyrrolidin-1-yl)pyridin-2-yl)sulfonyl)-1-(5-methyl-2-(spiro[3.3]heptan-2-yl)phenoxy)cyclopropane-1-carboxamide], the Emax amounted to 626% and a half-maximal effect (EC50) was put at 1090 nM.

`Cc1ccc(OC2CCCCC2)c(OC2(C(=O)NS(=O)(=O)c3cccc(N4CC[C@H](O)C4)n3)CC2)c1` [Example 6-3, (S)-1-(2-(Cyclohexyloxy)-5-methylphenoxy)-N-((6-(3-hydroxypyrrolidin-1-yl)pyridin-2-yl)sulfonyl)cyclopropane-1-carboxamide]: the Emax stood at 507% and the EC50 was 2780 nM.

With `O=C(NS(=O)(=O)c1cccc(N2C[C@H]3CC[C@@H](O)[C@H]3C2)n1)C1(Oc2cc(Cl)ccc2N2CC3(CCCCC3)C2)CC1` [Example 9-3, 1-(5-chloro-2-(2-azaspiro[3.5]nonan-2-yl)phenoxy)-N-((6-((3aR,4R,6aS)-4-hydroxyhexahydrocyclopenta[c]pyrrol-2(1H)-yl)pyridin-2-yl)sulfonyl)cyclopropane-1-carboxamide], the Emax was found to be 588% and a half-maximal effect (EC50) was put at 1350 nM.

On to `Cc1ccc(C2CC2C(F)(F)F)c(OC2(C(=O)NS(=O)(=O)c3cccc(N)n3)CC2)c1` (single isomer, unassigned) [Example 1-3-2, N-((6-aminopyridin-2-yl)sulfonyl)-1-(5-methyl-2-(2-(trifluoromethyl)cyclopropyl)phenoxy)cyclopropane-1-carboxamide], for which the “DelF508-CFTR-HRP Amax %” value worked out at 260% and a half-maximal response (EC50) required 2990 nM.

In the case of `CC1(C)CCN(c2ccc(Cl)cc2OC2(C(=O)NS(=O)(=O)c3cccc(N4CCC(C)(O)C4)n3)CC2)CC1` (single isomer, unassigned) [Example 9-39-2, 1-(5-Chloro-2-(4,4-dimethylpiperidin-1-yl)phenoxy)-N-((6-(3-hydroxy-3-methylpyrrolidin-1-yl)pyridin-2-yl)sulfonyl)cyclopropane-1-carboxamide], the “DelF508-CFTR-HRP Amax %” value was 493.9% and the response was half-maximal at 840 nM (EC50).

As for `CC1(C)CCN(c2ccc(Cl)cc2OC2(C(=O)NS(=O)(=O)c3cccc(N4CC5CCC(C4)O5)n3)CC2)CC1` [Example 9-40, N-((6-(8-Oxa-3-azabicyclo[3.2.1]octan-3-yl)pyridin-2-yl)sulfonyl)-1-(5-chloro-2-(4,4-dimethylpiperidin-1-yl)phenoxy)cyclopropane-1-carboxamide], the Emax was found to be 693% and it took 1510 nM to reach a half-maximal effect (EC50).

Take `O=C(NS(=O)(=O)c1cccc(N2CC[C@H](O)C2)n1)C1(Oc2cc(Cl)ccc2-c2cccc(OC(F)(F)F)c2)CC1` [Example 5-6, (S)-1-((4-Chloro-3′-(trifluoromethoxy)-[1,1′-biphenyl]-2-yl)oxy)-N-((6-(3-hydroxypyrrolidin-1-yl)pyridin-2-yl)sulfonyl)cyclopropane-1-carboxamide]: the Emax was determined as 280% and a half-maximal response (EC50) required 1770 nM.

Take `C[C@]1(O)CCN(c2cccc(S(=O)(=O)NC(=O)C3(Oc4cc(Cl)ccc4N4CCC5(CC4)CC5)CC3)n2)C1` [Example 9-28, (S)-1-(5-Chloro-2-(6-azaspiro[2.5]octan-6-yl)phenoxy)-N-((6-(3-hydroxy-3-methylpyrrolidin-1-yl)pyridin-2-yl)sulfonyl)cyclopropanecarboxamide]: the Emax was found to be 755% and it took 550 nM to reach a half-maximal effect (EC50).

As to `O=C(NS(=O)(=O)c1cccc(N2CC[C@H](O)C2)n1)C1(Oc2cc(Cl)ccc2-c2ccc(F)c(C(F)(F)F)c2)CC1` [Example 5-7], the Emax is 279% and a half-maximal effect (EC50) was put at 1380 nM.

Take `Cc1ccc(-c2cc(C(F)(F)F)ccn2)c(OC2(C(=O)NS(=O)(=O)c3cccc(N4CC[C@H](O)C4)n3)CC2)c1` [Example 5-13, (S)—N-((6-(3-Hydroxypyrrolidin-1-yl)pyridin-2-yl)sulfonyl)-1-(5-methyl-2-(4-(trifluoromethyl)pyridin-2-yl)phenoxy)cyclopropane-1-carboxamide]: the Emax stood at 513% and it took 2080 nM to reach a half-maximal effect (EC50).

Regarding `C=C(c1ccc(F)cc1OC1(C(=O)NS(=O)(=O)c2cccc(N3CCN(c4ccccc4)CC3)n2)CC1)C(F)(F)F` [Example 4-18, 1-(5-Fluoro-2-(3,3,3-trifluoroprop-1-en-2-yl)phenoxy)-N-((6-(4-phenylpiperazin-1-yl)pyridin-2-yl)sulfonyl)cyclopropane-1-carboxamide], the Emax was determined as 160% and the EC50 stood at 3390 nM.

Consider `Cc1ccc(C2CC2C(F)(F)F)c(OC2(C(=O)NS(=O)(=O)c3cccc(N)n3)CC2)c1` (single isomer, unassigned) [Example 1-3-1, N-((6-aminopyridin-2-yl)sulfonyl)-1-(5-methyl-2-(2-(trifluoromethyl)cyclopropyl)phenoxy)cyclopropane-1-carboxamide], for which the “DelF508-CFTR-HRP Amax %” value was 65% and the response was half-maximal at 4180 nM (EC50).

The values are drawn from patent publication US20220033407A1, “N-(pyridin-2-ylsulfonyl)cyclopropanecarboxamide Derivatives and their Use in the Treatment of Disease” (NOVARTIS AG, priority 2018, published 2022).
